Measurements published in patent US12370263B2, “Cyclic dinucleotide derivative based antibody-drug conjugates” (DAIICHI SANKYO COMPANY, LIMITED, priority 2018, dated 2025).
pEC50: −log10 of the molar value.

How the values were obtained:
[1] = test system: CT26.WT cells; assay: Anti-Tumor Test (1), intratumoral administration; format: in vivo, BALB/c mouse; conditions: 10 μg intratumorally on Day 7, 9, and 11; CT26.WT in BALB/c mice; FIGS. 7a and 7b
Description: Mice: Before use for experiment, 5-week-old female BALB/c mice (BALB/cAnNCrlCrlj) (Charles River Laboratories Japan, Inc.) were habituated under SPF conditions for 4 days or longer.
Measurement, calculation formula: In all the studies, the major axis and minor axis of a tumor were measured twice or three times per week by using an electronic digital caliper (CD15-CX, Mitutoyo Corporation) to calculate tumor volume (mm^3). The calculation formula is as follows. Tumor volume (mm^3)=0.5×Major axis (mm)×[Minor axis (mm)]^2
Each test compound was diluted with physiological saline (Otsuka Pharmaceutical Factory, Inc.) for use. In administration of it, 50 μL was intratumorally administered.
Cells of the mouse colorectal cancer cell line CT26.WT (CRL2638) purchased from the American Type Culture Collection were used. CT26.WT cells were suspended in physiological saline, 1.0×10^6 cells were subcutaneously transplanted into the right axilla of each BALB/c mouse (Day 0), and 7 days thereafter the mice were randomly grouped. Each test compound in a dose of 10 μg was intratumorally administered on Day 7, 9, and 11, three times in total. A group with administration of physiological saline was set as a group with a vehicle. The number of mice in each group was five or six.

[2] = biological target: Human STING (Homo sapiens, UniProt Q86WV6, G230A/H232R/R293Q/R71H); assay: Reporter gene assay, human STING agonist activity, THP1-Dual cells (HAQ-mutated), IRF pathway; conditions: THP1-Dual cells IRF EC50, THP1-Dual cells (HAQ-mutated), 24 hours; 100% = maximum count with ML-RR-CDA·2Na+
Human STING, sequence (Q86WV6 whole entry R71H/G230A/H232R/R293Q, the tested form may be a part): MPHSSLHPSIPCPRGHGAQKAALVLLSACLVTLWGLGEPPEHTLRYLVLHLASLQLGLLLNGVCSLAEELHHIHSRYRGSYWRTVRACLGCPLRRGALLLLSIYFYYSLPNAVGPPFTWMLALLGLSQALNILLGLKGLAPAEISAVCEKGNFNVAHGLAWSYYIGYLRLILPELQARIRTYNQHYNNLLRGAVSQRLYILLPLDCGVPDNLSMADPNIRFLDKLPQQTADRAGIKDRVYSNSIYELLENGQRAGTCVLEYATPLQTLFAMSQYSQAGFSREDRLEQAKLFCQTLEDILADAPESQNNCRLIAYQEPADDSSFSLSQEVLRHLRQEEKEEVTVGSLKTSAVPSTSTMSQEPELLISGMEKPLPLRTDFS
Description: Human STING agonist activity was evaluated by using THP1-Dual™ cells (HAQ-mutated) (InvivoGen, CA, US), with which the activation of the pathway of interferon regulatory factor-3 (IRF3), which is present in the downstream of the STING pathway, can be confirmed.
Assay was performed as follows. First, a test compound diluted with PBS was aliquoted into a transparent 96-well plate (Corning Incorporated, NY, US) at 20 μL/well. Subsequently, reporter cells suspended in assay buffer (an RPMI1640 medium or DMEM medium containing 10% bovine serum albumin) were added at 180 μL/well (1×10^5 cells/well) to initiate stimulation. After the cells were cultured in an environment at 37° C. and 5% CO2 for 24 hours, the resultant was centrifuged to collect the supernatant. To a white 384-well plate, 6 μL of the supernatant collected was added, and 15 μL of QUANTI-Luc (InvivoGen) solution was added thereto. After the resultant was well mixed together, emission was measured by using a plate reader (PerkinElmer, Inc., MA, US).

[3] = biological target: T1, HisAviTEV-hSTING (139-342) human AQ-mutated protein (Homo sapiens, UniProt Q86WV6, G230A/H232R/R293Q); assay: Protein thermal shift assay, STING C-terminal binding domain protein; conditions: test compound final concentration 0.5 mM
T1 construct: made in house; host or cells: E. coli Rosetta 2 (DE3), co-expressed with BirA (1-321)
T1 sequence (Q86WV6 with tags, fused parts or gaps G230A/H232R/R293Q): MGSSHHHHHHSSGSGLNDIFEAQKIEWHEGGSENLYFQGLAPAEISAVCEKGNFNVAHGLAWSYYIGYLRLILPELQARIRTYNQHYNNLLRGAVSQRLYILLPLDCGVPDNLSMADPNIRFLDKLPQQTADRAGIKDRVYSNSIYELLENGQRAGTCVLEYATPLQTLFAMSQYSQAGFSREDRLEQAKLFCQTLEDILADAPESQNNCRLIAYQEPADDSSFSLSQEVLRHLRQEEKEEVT

[4] = biological target: T2, His-Avi-TEV-mSTING (138-341) mouse wild-type protein (Mus musculus, UniProt Q3TBT3); assay: as above; conditions: test compound final concentration 0.5 mM
T2 construct: made in house; host or cells: E. coli Rosetta 2 (DE3), co-expressed with BirA (1-321)
T2 sequence (Q3TBT3 with tags, fused parts or gaps limits assumed): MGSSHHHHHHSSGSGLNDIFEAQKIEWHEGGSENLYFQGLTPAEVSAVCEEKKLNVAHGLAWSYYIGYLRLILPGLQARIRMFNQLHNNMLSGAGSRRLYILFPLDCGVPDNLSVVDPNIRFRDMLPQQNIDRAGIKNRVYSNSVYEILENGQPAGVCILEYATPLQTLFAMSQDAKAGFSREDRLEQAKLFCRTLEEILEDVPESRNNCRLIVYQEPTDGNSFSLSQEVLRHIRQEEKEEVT
Description: Each of these expression strains was added to a TB medium containing 100 μg/mL ampicillin, 50 μg/mL streptomycin, and 30 μg/mL kanamycin, cultured at 37° C., then exposed to 100 μM IPTG for inducible expression, and further cultured at 16° C.
The culture solution was centrifuged, and the resulting bacterial cells were suspended in 50 mM HEPES pH 8.0, 500 mM NaCl, 20 mM imidazole, 1 mM DTT, 5% (w/v) glycerol, Complete EDTA free, and then subjected to freeze-thawing. After addition of Lysozyme and DNase I, proteins were extracted by ultrasonic disintegration, and centrifugation was performed and the resulting supernatant was collected. The supernatant obtained was purified by using an AKTA express chromatography system (GE Healthcare, IL, US) with a HisTrap FF column (GE Healthcare), and eluted with buffer (20 mM HEPES pH 7.5, 120 mM NaCl, 20% Glycerol, 0.8 mM DTT) through a Superdex 200 16/60 column (GE Healthcare). […] The protein concentrations were measured by using a NanoDrop2000 (Thermo Fisher Scientific, MA, US), and the proteins were cryopreserved at −80° C. until use.
The binding ability of each compound to the STING C-terminal binding domain proteins was evaluated by protein thermal shift assay, which uses the elevation of thermal denaturation temperature of protein as an index.
Specifically, 3 μL of a test compound (final concentration: 0.5 mM), 3 μL of SYPRO Orange Protein Gel Stain (Thermo Fisher Scientific) (final concentration: 20-fold), and 6 μL of a STING protein were mixed with use of assay buffer (20 mM Tris-HCl pH 7.5, 120 mM NaCl) in a 384-well real-time PCR plate, and mixed together with a plate shaker. With a real-time PCR system (Thermo Fisher Scientific), the temperature was increased from 25° C. to 95° C. at a rate of 0.03° C./sec, and the thermal denaturation temperature of the protein was measured by using fluorescence emitted from SYPRO Orange as an index. From the measurement acquired, Tm (the midpoint of the unfolding transition) (° C.) was determined as a temperature at which the increase rate of fluorescence intensity was maximized by using the analysis software Protein Thermal Shift software (Thermo Fisher Scientific). The Tm value for a well with no compound was subtracted from the Tm value for each test compound to calculate the Tm shift caused by the compound as ΔTm (° C.).

[5] = biological target: T3, HisAviTEV-hSTING (139-342) human wild-type protein (Homo sapiens, UniProt Q86WV6, H232R); assay: as above; conditions: test compound final concentration 0.5 mM
T3 construct: made in house; host or cells: E. coli Rosetta 2 (DE3), co-expressed with BirA (1-321)
T3 sequence (Q86WV6 with tags, fused parts or gaps H232R): as the sequence (Q86WV6 with tags, fused parts or gaps G230A/H232R/R293Q) above, with A131G, Q194R counted along it

[6] = biological target: T4, HisAviTEV-hSTING (139-342) human REF-mutated protein (Homo sapiens, UniProt Q86WV6); assay: as above; conditions: test compound final concentration 0.5 mM
T4 construct: made in house; host or cells: E. coli Rosetta 2 (DE3), co-expressed with BirA (1-321)
T4 sequence (Q86WV6 with tags, fused parts or gaps, change not shown): as the sequence (Q86WV6 with tags, fused parts or gaps G230A/H232R/R293Q) above, with A131G, R133H, Q194R counted along it

Row | SMILES | tumor growth (tumor volume) [1] | pEC50 [2] | ΔTm Hu-AQ [3] | ΔTm Ms-WT [4] | ΔTm Hu-WT [5] | ΔTm Hu-REF [6] | ΔTm at 500 µM [3] | ΔTm at 500 µM [4] | ΔTm at 500 µM [5] | ΔTm at 500 µM [6]
1 | Nc1nc(NCCO)nc2c1ncn2[C@@H]1O[C@@H]2COP(=O)(S)O[C@H]3[C@@H](O)[C@H](n4cc5c6c(ncnc64)NCCC5)O[C@@H]3COP(=O)(S)O[C@@H]1[C@@H]2O (single isomer, unassigned) [9b] | significantly suppressed | 5.62 |  |  |  |  |  |  |  | 
2 | NCCNc1nc(N)c2ncn([C@@H]3O[C@@H]4COP(=O)(S)O[C@H]5[C@@H](F)[C@H](n6cc7c8c(ncnc86)NCCC7)O[C@@H]5COP(=O)(S)O[C@@H]3[C@@H]4O)c2n1 (single isomer, unassigned) [37b] |  | 5.35 | 9.4 °C | 12.3 °C | 8.1 °C | 3.4 °C |  |  |  | 
3 | O=c1c2ncn([C@@H]3O[C@@H]4COP(=O)(S)O[C@H]5[C@@H](O)[C@H](n6cc7c8c(ncnc86)NCCC7)O[C@@H]5COP(=O)(S)O[C@@H]3[C@@H]4F)c2ncn1CCO (single isomer, unassigned) [39a] |  | 6.72 |  |  |  |  | 12.9 °C | 15 °C | 10.4 °C | 5.7 °C
4 | NCCNc1nc(N)c2ncn([C@@H]3O[C@@H]4COP(=O)(S)O[C@H]5[C@@H](O)[C@H](n6cc7c8c(ncnc86)NCCC7)O[C@@H]5COP(=O)(S)O[C@@H]3[C@@H]4F)c2n1 (single isomer, unassigned) [42a] |  | 5.38 |  |  |  |  | 9 °C | 11.2 °C | 6.5 °C | 2.8 °C
5 | NCCNc1nc(N)c2ncn([C@@H]3O[C@@H]4COP(=O)(S)O[C@H]5[C@@H](O)[C@H](n6cc7c8c(ncnc86)NCCC7)O[C@@H]5COP(=O)(S)O[C@@H]3[C@@H]4F)c2n1 (single isomer, unassigned) [42b] |  | 5.33 | 7.4 °C | 10.6 °C | 5.3 °C | 1.4 °C |  |  |  | 
6 | O=c1c2ncn([C@@H]3O[C@@H]4COP(=O)(S)O[C@H]5[C@@H](F)[C@H](n6cc7c8c(ncnc86)NCCC7)O[C@@H]5COP(=O)(S)O[C@@H]3[C@@H]4F)c2ncn1CCO (single isomer, unassigned) [44a] |  | 6.68 |  |  |  |  | 18.2 °C | 19.3 °C | 13.4 °C | 8.7 °C
7 | NCCNc1nc(N)c2ncn([C@@H]3O[C@@H]4COP(=O)(S)O[C@H]5[C@@H](F)[C@H](n6cc7c8c(ncnc86)NCCC7)O[C@@H]5COP(=O)(S)O[C@@H]3[C@@H]4F)c2n1 (single isomer, unassigned) [45a] |  | 5.92 |  |  |  |  | 10.8 °C | 12.3 °C | 8.9 °C | 4.4 °C
8 | NCCNc1nc(N)c2ncn([C@@H]3O[C@@H]4COP(=O)(S)O[C@H]5[C@@H](F)[C@H](n6cc7c8c(ncnc86)NCCC7)O[C@@H]5COP(=O)(S)O[C@@H]3[C@@H]4F)c2n1 (single isomer, unassigned) [45b] |  | 5.51 | 9.1 °C | 12.1 °C | 7.5 °C | 3.1 °C |  |  |  | 
9 | O=c1c2ncn([C@@H]3O[C@@H]4COP(=O)(S)O[C@H]5[C@@H](F)[C@H](n6cc7c8c(ncnc86)SCCC7)O[C@@H]5COP(=O)(S)O[C@@H]3[C@@H]4O)c2ncn1CCO (single isomer, unassigned) [48a] |  | 7.46 |  |  |  |  | 22.2 °C | 16 °C | 15.9 °C | 9.3 °C
10 | NCCn1cnc2c(ncn2[C@@H]2O[C@@H]3COP(=O)(S)O[C@H]4[C@@H](F)[C@H](n5cc6c7c(ncnc75)SCCC6)O[C@@H]4COP(=O)(S)O[C@@H]2[C@@H]3O)c1=O (single isomer, unassigned) [49b] |  | 6.39 |  |  |  |  | 16.1 °C | 19.3 °C | 12.6 °C | 6.6 °C
11 | O=C(CO)NCCn1cnc2c(ncn2[C@@H]2O[C@@H]3COP(=O)(S)O[C@H]4[C@@H](F)[C@H](n5cc6c7c(ncnc75)SCCC6)O[C@@H]4COP(=O)(S)O[C@@H]2[C@@H]3O)c1=O (single isomer, unassigned) [50a] |  | 6.47 |  |  |  |  | 15.6 °C | 13 °C | 12.3 °C | 6.5 °C
12 | NCCNc1nc(N)c2ncn([C@@H]3O[C@@H]4COP(=O)(S)O[C@H]5[C@@H](F)[C@H](n6cc7c8c(ncnc86)SCCC7)O[C@@H]5COP(=O)(S)O[C@@H]3[C@@H]4F)c2n1 (single isomer, unassigned) [51b] |  | 6.37 |  |  |  |  | 11.6 °C | 17 °C | 9.9 °C | 4.3 °C
13 | O=c1c2ncn([C@@H]3O[C@@H]4COP(=O)(O)O[C@H]5[C@@H](F)[C@H](n6cc7c8c(ncnc86)NCCC7)O[C@@H]5COP(=O)(S)O[C@@H]3[C@@H]4O)c2ncn1CCO (single isomer, unassigned) [52a] |  | 6.51 |  |  |  |  | 13.5 °C | 14.3 °C | 10.9 °C | 5.6 °C
14 | O=c1c2ncn([C@@H]3O[C@@H]4COP(=O)(S)O[C@H]5[C@@H](F)[C@H](n6cc7c8c(ncnc86)NCCC7)O[C@@H]5COP(=O)(O)O[C@@H]3[C@@H]4O)c2ncn1CCO (stereo partly drawn) [53a, Disodium (5R,7R,8R,12aR,14R,15R,15aR,16R)-15-fluoro-16-hydroxy-7-[1-(2-hydroxyethyl)-6-oxo-1,6-dihydro-9H-purin-9-yl]-2,10-dioxo-2-sulfide-14-(6,7,8,9-tetrahydro-2H-2,3,5,6-tetraazabenzo[cd]azulen-2-yl)octahydro-2H,10H,12H-5,8-methano-2λ^5,10λ^5-furo[3,2-1][1,3,6,9,11,2,10]pentaoxadiphosphacyclotetradecin-10-olate] |  | 5.22 |  |  |  |  | 11.6 °C | 14.3 °C | 9.6 °C | 5.4 °C
15 | O=c1c2ncn([C@@H]3O[C@@H]4COP(=O)(O)O[C@H]5[C@@H](F)[C@H](n6cc7c8c(ncnc86)NCCC7)O[C@@H]5COP(=O)(O)O[C@@H]3[C@@H]4O)c2ncn1CCO [compound 54, Disodium (5R,7R,8R,12aR,14R,15R,15aR,16R)-15-fluoro-16-hydroxy-7-[1-(2-hydroxyethyl)-6-oxo-1,6-dihydro-9H-purin-9-yl]-2,10-dioxo-14-(6,7,8,9-tetrahydro-2H-2,3,5,6-tetraazabenzo[cd]azulen-2-yl)octahydro-2H,10H,12H-5,8-methano-2λ^5,10λ^5-furo[3,2-1][1,3,6,9,11,2,10]pentaoxadiphosphacyclotetradecine-2,10-bis(olate)] |  | 5.40 |  |  |  |  | 9.8 °C | 12.1 °C | 8.3 °C | 3.4 °C
